Laboratory results from patent publication US20180265867A1, “NUCLEIC ACID MOLECULES WITH ENHANCED ACTIVITY” (priority 2015, published 2018).
d = 2'-deoxy (DNA); r = 2'-OH (RNA)

What was measured:
CTNNB1 (β-catenin) = test: CTNNB1 knockdown time course in MG63 cells by qRT-PCR; type: cell-based, human; conditions: MG63, 50 nM, 24, 48 and 72 h; β-catenin cpRNA without transfection reagent vs canonical siRNA with transfection reagent
Protocol: At 70% confluency, a day prior to transfection, the cells were seeded at a density of 35 000 cells in a 24-well cell culture plate to achieve 60-80% confluence at the day of transfection. Cell penetrating siRNAs (cpRNAs) of different lengths were transfected at 50 nM concentrations with Magnet Assisted Transfection (MATra-si) reagent for siRNAs (IBA GmbH, Göttingen, Germany) according to the manufacturers' protocols. Briefly, the siRNA was mixed with MATra-si reagent composed of supermagnetic ironoxide nanoparticles and incubated for 20 min. A complex was formed which was added to the cells to be transfected. A strong magnetic force was applied beneath the cells for 15 min. This forced the complex to be drawn into the cells by the magnetic field, and as a result the siRNA was delivered directly into the cytosol. […]
cDNA synthesis was performed in triplicate using total RNA reverse transcribed using High Capacity cDNA reverse transcription kit (Applied Biosystems, USA), with non-template control added to ensure a lack of signal in assay background. […] Data from samples with a Ct value equal to or below 35 were further analyzed. Samples were normalized relative to endogenous control and differences in cycle number thresholds were calculated using comparative quantitation 2^−ΔΔcT method (also called the ΔΔCT method), commonly used for analyzing siRNA induced gene knockdown efficiency. […]

β-catenin = test: Western blot of β-catenin protein in MG63 cells; type: cell-based, human; conditions: MG63, 50 nM, at 48 h, β-catenin cpRNA, no transfection reagent
Protocol: After 48 hours of transfection, cells were washed twice with ice-cold PBS and lysed in RIPA lysis buffer (50 mM Tris-HCl, pH 8.0, with 150 mM NaCl, 1.0% Igepal CA-630 (NP-40), 0.5% sodiumdeoxycholate, 0.1% SDS, and 1.0% protease inhibitor cocktail from SIGMA-ALDRICH®). Lysates were incubated on ice for 30 minutes and centrifuged at 10,000 rpm for 20 minutes to collect supernatant. Coomassie Plus—The Better Bradford Assay™ Reagent (Thermo Scientific) was used to measure protein concentrations. Thereafter, 20 μg of soluble protein was separated by SDS-PAGE and transferred to polyvinylidene difluoride membrane (Millipore). Primary antibodies against GAPDH (1:1000 dilution), β-catenin (1:1000 dilution; SIGMA-ALDRICH®), β-actin (1:1000; Cell Signaling Technology®) were used to probe the protein bands. Anti-Rabbit-HRP conjugated secondary antibodies (1:3000 dilution; R&D Systems®) were used to detect the primary antibodies, followed by the target protein visualization with EMD Millipore Immobilon™ Western Chemiluminescent HRP Substrate (ECL). […]
To further validate our results, we tested the gene knockdown efficiency of another gene CTNNB1 (β-catenin), which is expressed in MG63 cells. We performed a time course experiment (24, 48 and 72 h) by targeting CTNNB1 and GAPDH in MG63 cells and quantified the mRNA and protein levels using qRT-PCR and Western blot experiments respectively (FIG. 8).

With “dT5: GAPDH siRNA, sense SEQ ID NO: 3 with dT5 3′-overhang, antisense SEQ ID NO: 2 with dT2 (sense CCGAGCCACAUCGCUCAGATTTTT; antisense UCUGAGCGAUGUGGCUCGGTT; sense: sugars from the 5' end r19 d5, backbone not given here; antisense: sugars from the 5' end r19 d2, backbone not given here)” the “CTNNB1 mRNA knockdown efficiency over time” value (CTNNB1 (β-catenin)) was “higher gene knockdown efficiency for over 72 hrs” and the CTNNB1 protein level (β-catenin) was “complete knockout”.
